The record followed here is patent US20080200439A1, “Methods and compositions for modulating BK channel activity and vasodilation” (University of Tennessee Research Foundation, priority 2006, published 2008).

The assay concerns pressurized cerebral arteries from β1-knockout (KCNMB1-knockout) mice. The assay can be described thus: Artery diameter measurement, pressurized cerebral arteries from BK β1-knockout mice. Also noted: species or system mouse. The following applies: 55 nM. The method, then: Artery Diameter Measurement. Middle cerebral arteries were isolated from adult male Sprague-Dawley rats (=250 g) or 8- to 12-week-old β1-knockout and C57BL/6 control mice. Rats and mice were decapitated using a guillotine and sharp scissors, respectively. These procedures were approved by the Institutional Animal Care and Use Committee from The University of Tennessee Health Science Center, an AMLAC-accredited institution. Pressurization of arteries was performed as described (Liu et al., 2004). Endothelium was removed by passing an air bubble into the vessel lumen for 90 sec. Diameter changes were monitored through an inverted microscope (Nikon Eclipse TS100, Nikon Corp., Tokyo, Japan), recorded on camera (Sanyo VCB-3512T, Sanyo Electric Corp., Japan), and transferred to a computer. Diameter data were acquired and analyzed using IonWizard 4.4 software (IonOptics Corp., Milton, Mass., United States of America). […]
Data Analysis. […] Arterial diameter and electrophysiological data were analyzed with IonWizard 4.4 (IonOptics Corp., Milton, Mass., United States of America) and pCLAMP 8.0 (Molecular Devices, Union City, Calif., United States of America). […]
To determine the impact of LC targeting of BK β1-subunits on organ function, LC action on the arterial diameter of pressurized cerebral arteries was evaluated from β1-knockout vs. wt C57BU6 mice (controls). […]

In the case of “iberiotoxin (QFTDVDCSVSKECWSVCKDLFGVDRGKCMGKKCRCYQ; UniProt P24663 1-37, looked up) [Ibtx, reference compound]”, the Decrease in diameter is −2.25±0.44%.
